We go through two compounds from patent US20240360126A1, “PYRAZOLO[3,4-B]PYRIDINE COMPOUNDS FOR THE TREATMENT OF AUTOIMMUNE DISEASE” (Hoffmann-La Roche Inc., priority 2021, published 2024).

The structures appear in SMILES notation.

Data set [1] is described as follows: 3T3 in vitro phototoxicity assay (Neutral Red uptake). The class given is cell-based, mouse. The following applies: mouse, Balb/c 3T3 mouse fibroblasts (clone A 31, ATCC CCL 163); approx. 5 J/cm^2 UVA light. An excerpt: (§1) Phototoxicity is defined as a toxic response that is elicited after the first exposure of the skin to certain chemicals and subsequent exposure to light, or that is induced similarly by skin irradiation after systemic administration of a chemical substance. The assay used in this study is designed to detect the phototoxic potential of a chemical by using a simple in vitro cytotoxicity assay with Balb/c 3T3 mouse fibroblasts. The principle of this test is a comparison of the cytotoxicity of a chemical when tested with and without exposure to a non-toxic dose of UVA-light. Cytotoxicity is expressed as a dose dependent reduction of the growth rate of cells as determined by uptake of the vital dye Neutral Red one day after treatment.
(§2) Preparation of Stock Solution and Dosage of Test Item A small amount of substance was weighed and formulated freshly in DMSO just before the start of the exposure of the cells. This stock solution or appropriate dilutions with DMSO were added to the cell suspensions to obtain the required final concentrations. All solutions were generally prepared in Eppendorf caps and discarded after use.
(§3) • Chlorpromazine (HCL) (Sigma, Batch/Lot No.: 120M1328V), test concentration: 300 μg/mL, Solvent: PBS/3% DMSO
(§4) For this study the Neutral Red uptake (NRU) assay of Borenfreund and Puemer (Borenfreund, E, Puemer J A. Toxicity determined in vitro by morphological alterations and Neutral Red absorption. Toxicology Lett. 1985; 24:119-124) modified according to INVITTOX protocol No 78 (ERGATT/FRAME data bank of in vitro techniques in toxicology. INVITTOX PROTOCOL No 78. 3T3 NRU Phototoxicity Assay. March 1994) has been adapted to examine a possible phototoxic potential of the test item. This assay is based on the active uptake of the Neutral Red dye into the lysosomes of cultured murine fibroblasts. Because lysosomal membranes are known to be a site of action of many phototoxic compounds, this assay can provide a measure of potential for phototoxic injury.
(§5) A murine fibroblasts clone A 31 (ATCC no. CCL 163—passage No. 108) were cultured in 175 cm^2 tissue culture grade flasks, containing sDMEM (Dulbecco's […] Essential Medium, supplemented with 10% fetal calf serum, 2 mM L-glutamine, 100 units/ml Penicillin and 100 μg/ml streptomycin) at 37° C. in a humidified atmosphere of 6% CO2. Before cells approach confluence they were removed from flasks by trypsinisation. Prior to use in an assay, the cells were transferred to 96-well microtiter plates at a concentration of 1×10^4 cells/well in 100 μl volumes of sDMEM and allowed to attach for 24 h. […]
(§6) For each test item the microtiter plates were prepared according to Table 6. […] UV flux was measured with a UV-meter (Dr. Gröbel RM21). […]

Data set [2] deals with Balb/c 3T3 mouse fibroblasts. The description is as above. It counts as cell-based. The following applies: IC50 with and without UV exposure compared; cut-off >5.
Text: as §1, §2, §3, §4, §5, §6

As for `Cc1cc(N2CC[C@@H](c3ncc(N4CCOC[C@@H](N)C4)cc3C)[C@H](C)C2)c2cnn(C)c2n1` [Example 28, (6S)-4-[6-[(3S,4R)-1-(1,6-dimethylpyrazolo[3,4-b]pyridin-4-yl)-3-methyl-4-piperidyl]-5-methyl-3-pyridyl]-1,4-oxazepan-6-amine], the concentration for half-maximal inhibition (IC50) at 1 h in data set [1] is greater than 120 µg/mL. In addition, the Phototoxicity factor in data set [2] stood at 1.
Taken in the same sequence, the figures for `Cc1cc(N2CC[C@H](c3ccc(N4CCOC[C@@H](N)C4)cn3)[C@@H](C)C2)c2cnn(C)c2n1` [Example 40, (6S)-4-[6-[(3R,4S)-1-(1,6-dimethylpyrazolo[3,4-b]pyridin-4-yl)-3-methyl-4-piperidyl]-3-pyridyl]-1,4-oxazepan-6-amine] were greater than 120 µg/mL and 1.

The term IC50 denotes the concentration at which inhibition is half-maximal. A lower IC50 goes with higher potency.
